The subject of the assay is KB. Description: Cytotoxicity against human KB cells. Format: functional. To be noted: read-out: ED50 (the source's name).

`COc1cc(C[C@H]2CO[C@H](c3ccc(OC)c(OC)c3)[C@H]2CO)ccc1O`: the EC50 was greater than 10 µg/mL.

Source of the values: ChEMBL document CHEMBL1151629, “Lariciresinol derivatives from Turrea nilotica and Monechma ciliatum” (1984).
